This test concerns the target T1, bacterial TSPO (P. fluorescens MF37 TSPO).
T1 construct: native protein in bacterial membranes; 438 bp fragment encoding 146 residues; theoretical 17 kDa, 37 kDa band on SDS-PAGE, apparent dimer
Briefly: [3H]-PK […] saturation binding, Scatchard, bacterial membranes. It counts as biochemical, Pseudomonas fluorescens. Conditions: labelled compound; native membranes, 50 mM Tris-HCl pH 7.4; 0.6 to 59 nM tracer; non-specific with 30 µM PK 11195.

On to `CCC(C)N(C)C(=O)c1cc2ccccc2c(-c2ccccc2Cl)n1` (stereo not shown) [PK 11195], for which the Kd (in general, the concentration at which binding is half-saturated) was 920 pM.

The values above are taken from publication PMC2699550, “Bacterial Ortholog of Mammalian Translocator Protein (TSPO) with Virulence Regulating Activity” (PLoS ONE, 2009).
